The record followed here is patent publication US8962844B2, “1,3,4-oxadiazole and 1,3,4-thiadiazole β-lactamase inhibitors” (priority 2012, dated 2015).

Structures can show the parent of a compound that is named as a salt.

In assay [1] the test system is bacterial strains that express the class D cephalosporinase OXA-15. As to the kind of experiment: Standard BLI potentiation MIC / synergy MIC (sMIC) assays run in the presence of a β-lactam, OXA-15 expressing strains. Conditions: BLI in combination with a β-lactam; comparison with Avibactam (comparator compound CCC). The format is cell-based, E. coli. An outline of the steps: (§1)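 Isogenic E. coli DH10B carrying cloned β-lactamase genes on pBR322-derived plasmid (blaTEM-1 promoter, tetracycline 25 μg/mL) tested by CLSI broth microdilution in CAMHB. Test compound and β-lactam each diluted and combined; MIC reported in presence of β-lactam.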

Assay [2] deals with bacterial strains that express KPC β-lactamases. The assay can be described thus: Standard BLI potentiation MIC / synergy MIC (sMIC) assays run in the presence of a β-lactam, KPC expressing strains. It counts as cell-based. Conditions: more active for at least one KPC strain and/or better spectrum of activity than Avibactam; BLI in combination with a β-lactam. In a few lines: as §1

With `O=C1N2C[C@@H](CC[C@H]2c2nnc(C3CC4(CNC4)C3)o2)N1OS(=O)(=O)O` [Compound 750, (2S,5R)-2-(5-(2-azaspiro[3,3]heptan-6-yl)-1,3,4-oxadiazol-2-yl)-7-oxo-1,6-diazabicyclo[3.2.1]octan-6-yl hydrogen sulfate], the “activity against bacterial strains that express the class D cephalosporinase OXA-15, compared with Avibactam” value in assay [1] was “more active than Avibactam”. Further, the “activity and/or spectrum of activity against bacterial strains that express KPC β-lactamases, compared with Avibactam” value in assay [2] was “more active than Avibactam”.

Consider `N[C@H]1C[C@H](Cc2nnc([C@@H]3CC[C@@H]4CN3C(=O)N4OS(=O)(=O)O)o2)C1` [Compound 751, (2S,5R)-2-(5-(((1r,3S)-3-aminocyclobutyl)methyl)-1,3,4-oxadiazol-2-yl)-7-oxo-1,6-diazabicyclo[3.2.1]octan-6-yl hydrogen sulfate], for which the “activity against bacterial strains that express the class D cephalosporinase OXA-15, compared with Avibactam” value in assay [1] is given as “more active than Avibactam”. In assay [2], the “activity and/or spectrum of activity against bacterial strains that express KPC β-lactamases, compared with Avibactam” value was “more active than Avibactam”.

Turning to `N=C(N)NC1CC(Cc2nnc([C@@H]3CC[C@@H]4CN3C(=O)N4OS(=O)(=O)O)o2)C1` (stereo partly drawn) [Compound 752, (2S,5R)-2-(5-((3-guanidinocyclobutyl)methyl)-1,3,4-oxadiazol-2-yl)-7-oxo-1,6-diazabicyclo[3.2.1]octan-6-yl hydrogen sulfate], the “activity against bacterial strains that express the class D cephalosporinase OXA-15, compared with Avibactam” value in assay [1] is reported as “more active than Avibactam”. Moreover, the “activity and/or spectrum of activity against bacterial strains that express KPC β-lactamases, compared with Avibactam” value in assay [2] is “more active than Avibactam”.

Regarding `N[C@H]1C[C@H](CCc2nnc([C@@H]3CC[C@@H]4CN3C(=O)N4OS(=O)(=O)O)o2)C1` [Compound 753, (2S,5R)-2-(5-(2-((1r,3R)-3-aminocyclobutyl)ethyl)-1,3,4-oxadiazol-2-yl)-7-oxo-1,6-diazabicyclo[3.2.1]octan-6-yl hydrogen sulfate], the “activity against bacterial strains that express the class D cephalosporinase OXA-15, compared with Avibactam” value in assay [1] is listed as “more active than Avibactam”. The “activity and/or spectrum of activity against bacterial strains that express KPC β-lactamases, compared with Avibactam” value in assay [2] is listed as “more active than Avibactam”.

Consider `N[C@H]1C[C@@H](CCc2nnc([C@@H]3CC[C@@H]4CN3C(=O)N4OS(=O)(=O)O)o2)C1` [Compound 754, (2S,5R)-2-(5-(2-((1s,3S)-3-aminocyclobutyl)ethyl)-1,3,4-oxadiazol-2-yl)-7-oxo-1,6-diazabicyclo[3.2.1]octan-6-yl hydrogen sulfate], for which the “activity against bacterial strains that express the class D cephalosporinase OXA-15, compared with Avibactam” value in assay [1] is recorded as “more active than Avibactam”. The “activity and/or spectrum of activity against bacterial strains that express KPC β-lactamases, compared with Avibactam” value in assay [2] is “more active than Avibactam”.

Consider `NC1CC(NCc2nnc([C@@H]3CC[C@@H]4CN3C(=O)N4OS(=O)(=O)O)o2)C1` (stereo partly drawn) [Compound 755, (2S,5R)-2-(5-(((3-aminocyclobutyl)amino)methyl)-1,3,4-oxadiazol-2-yl)-7-oxo-1,6-diazabicyclo[3.2.1]octan-6-yl hydrogen sulfate], for which the “activity against bacterial strains that express the class D cephalosporinase OXA-15, compared with Avibactam” value in assay [1] is given as “more active than Avibactam”. The “activity and/or spectrum of activity against bacterial strains that express KPC β-lactamases, compared with Avibactam” value in assay [2] is “more active than Avibactam”.

Consider `N[C@H]1C[C@@H](NCc2nnc([C@@H]3CC[C@@H]4CN3C(=O)N4OS(=O)(=O)O)o2)C1` [Compound 756, (2S,5R)-2-(5-((((1s,3R)-3-aminocyclobutyl)amino)methyl)-1,3,4-oxadiazol-2-yl)-7-oxo-1,6-diazabicyclo[3.2.1]octan-6-yl hydrogen sulfate], for which the “activity against bacterial strains that express the class D cephalosporinase OXA-15, compared with Avibactam” value in assay [1] is “more active than Avibactam”. Also, the “activity and/or spectrum of activity against bacterial strains that express KPC β-lactamases, compared with Avibactam” value in assay [2] is recorded as “more active than Avibactam”.

For the compound `O=C1N2C[C@@H](CC[C@H]2c2nnc([C@H]3CCNC3)o2)N1OS(=O)(=O)O` [Compound 758, (2S,5R)-7-oxo-2-(5-((S)-pyrrolidin-3-yl)-1,3,4-oxadiazol-2-yl)-1,6-diazabicyclo[3.2.1]octan-6-yl hydrogen sulfate], the “activity against bacterial strains that express the class D cephalosporinase OXA-15, compared with Avibactam” value in assay [1] is given as “more active than Avibactam”. Moreover, in assay [2], the “activity and/or spectrum of activity against bacterial strains that express KPC β-lactamases, compared with Avibactam” value is recorded as “more active than Avibactam”.

As to `O=C1N2C[C@@H](CC[C@H]2c2nnc([C@@H]3CCNC3)o2)N1OS(=O)(=O)O` [Compound 759, (2S,5R)-7-oxo-2-(5-((R)-pyrrolidin-3-yl)-1,3,4-oxadiazol-2-yl)-1,6-diazabicyclo[3.2.1]octan-6-yl hydrogen sulfate], the “activity against bacterial strains that express the class D cephalosporinase OXA-15, compared with Avibactam” value in assay [1] is recorded as “more active than Avibactam”. In assay [2], the “activity and/or spectrum of activity against bacterial strains that express KPC β-lactamases, compared with Avibactam” value is listed as “more active than Avibactam”.

For the compound `N[C@@H]1CN[C@H](c2nnc([C@@H]3CC[C@@H]4CN3C(=O)N4OS(=O)(=O)O)o2)C1` [Compound 760, (2S,5R)-2-(5-((2S,4S)-4-aminopyrrolidin-2-yl)-1,3,4-oxadiazol-2-yl)-7-oxo-1,6-diazabicyclo[3.2.1]octan-6-yl hydrogen sulfate], the “activity against bacterial strains that express the class D cephalosporinase OXA-15, compared with Avibactam” value in assay [1] is “more active than Avibactam”. The “activity and/or spectrum of activity against bacterial strains that express KPC β-lactamases, compared with Avibactam” value in assay [2] is “more active than Avibactam”.

In the case of `N[C@H]1CN[C@@H](c2nnc([C@@H]3CC[C@@H]4CN3C(=O)N4OS(=O)(=O)O)o2)C1` [Compound 761, (2S,5R)-2-(5-((2R,4R)-4-aminopyrrolidin-2-yl)-1,3,4-oxadiazol-2-yl)-7-oxo-1,6-diazabicyclo[3.2.1]octan-6-yl hydrogen sulfate], the “activity against bacterial strains that express the class D cephalosporinase OXA-15, compared with Avibactam” value in assay [1] is “more active than Avibactam”. Also, the “activity and/or spectrum of activity against bacterial strains that express KPC β-lactamases, compared with Avibactam” value in assay [2] is listed as “more active than Avibactam”.

With `N[C@H]1CN[C@H](c2nnc([C@@H]3CC[C@@H]4CN3C(=O)N4OS(=O)(=O)O)o2)C1` [Compound 762, (2S,5R)-2-(5-((2S,4R)-4-aminopyrrolidin-2-yl)-1,3,4-oxadiazol-2-yl)-7-oxo-1,6-diazabicyclo[3.2.1]octan-6-yl hydrogen sulfate], the “activity against bacterial strains that express the class D cephalosporinase OXA-15, compared with Avibactam” value in assay [1] was “more active than Avibactam”. Also, the “activity and/or spectrum of activity against bacterial strains that express KPC β-lactamases, compared with Avibactam” value in assay [2] is “more active than Avibactam”.

As to `N[C@@H]1CN[C@@H](c2nnc([C@@H]3CC[C@@H]4CN3C(=O)N4OS(=O)(=O)O)o2)C1` [Compound 763, (2S,5R)-2-(5-((2R,4S)-4-aminopyrrolidin-2-yl)-1,3,4-oxadiazol-2-yl)-7-oxo-1,6-diazabicyclo[3.2.1]octan-6-yl hydrogen sulfate], the “activity against bacterial strains that express the class D cephalosporinase OXA-15, compared with Avibactam” value in assay [1] was “more active than Avibactam”. Also, in assay [2], the “activity and/or spectrum of activity against bacterial strains that express KPC β-lactamases, compared with Avibactam” value is recorded as “more active than Avibactam”.

Consider `O=C1N2C[C@@H](CC[C@H]2c2nnc(CC3CCNC3)o2)N1OS(=O)(=O)O` (stereo partly drawn) [Compound 764, (2S,5R)-7-oxo-2-(5-(pyrrolidin-3-ylmethyl)-1,3,4-oxadiazol-2-yl)-1,6-diazabicyclo[3.2.1]octan-6-yl hydrogen sulfate], for which the “activity against bacterial strains that express the class D cephalosporinase OXA-15, compared with Avibactam” value in assay [1] was “more active than Avibactam”. Moreover, in assay [2], the “activity and/or spectrum of activity against bacterial strains that express KPC β-lactamases, compared with Avibactam” value is “more active than Avibactam”.

Turning to `O=C1N2C[C@@H](CC[C@H]2c2nnc(CN[C@H]3CCNC3)o2)N1OS(=O)(=O)O` [Compound 765, (2S,5R)-7-oxo-2-(5-(((S)-pyrrolidin-3-ylamino)methyl)-1,3,4-oxadiazol-2-yl)-1,6-diazabicyclo[3.2.1]octan-6-yl hydrogen sulfate], the “activity against bacterial strains that express the class D cephalosporinase OXA-15, compared with Avibactam” value in assay [1] is “more active than Avibactam”. In addition, the “activity and/or spectrum of activity against bacterial strains that express KPC β-lactamases, compared with Avibactam” value in assay [2] is recorded as “more active than Avibactam”.

For the compound `O=C1N2C[C@@H](CC[C@H]2c2nnc(CN[C@@H]3CCNC3)o2)N1OS(=O)(=O)O` [Compound 766, (2S,5R)-7-oxo-2-(5-(((R)-pyrrolidin-3-ylamino)methyl)-1,3,4-oxadiazol-2-yl)-1,6-diazabicyclo[3.2.1]octan-6-yl hydrogen sulfate], the “activity against bacterial strains that express the class D cephalosporinase OXA-15, compared with Avibactam” value in assay [1] is recorded as “more active than Avibactam”. In assay [2], the “activity and/or spectrum of activity against bacterial strains that express KPC β-lactamases, compared with Avibactam” value is recorded as “more active than Avibactam”.

`N=C1NCC(c2nnc([C@@H]3CC[C@@H]4CN3C(=O)N4OS(=O)(=O)O)o2)N1` (stereo partly drawn) [Compound 767, (2S,5R)-2-(5-(2-iminoimidazolidin-4-yl)-1,3,4-oxadiazol-2-yl)-7-oxo-1,6-diazabicyclo[3.2.1]octan-6-yl hydrogen sulfate]: the “activity against bacterial strains that express the class D cephalosporinase OXA-15, compared with Avibactam” value in assay [1] is recorded as “more active than Avibactam”. The “activity and/or spectrum of activity against bacterial strains that express KPC β-lactamases, compared with Avibactam” value in assay [2] is given as “more active than Avibactam”.

Consider `N[C@H]1CC[C@@H](c2nnc([C@@H]3CC[C@@H]4CN3C(=O)N4OS(=O)(=O)O)o2)C1` [Compound 768, (2S,5R)-2-(5-((1R,3S)-3-aminocyclopentyl)-1,3,4-oxadiazol-2-yl)-7-oxo-1,6-diazabicyclo[3.2.1]octan-6-yl hydrogen sulfate], for which the “activity against bacterial strains that express the class D cephalosporinase OXA-15, compared with Avibactam” value in assay [1] is “more active than Avibactam”. For the same compound, in assay [2], the “activity and/or spectrum of activity against bacterial strains that express KPC β-lactamases, compared with Avibactam” value is “more active than Avibactam”.

Consider `O=C1N2C[C@@H](CC[C@H]2c2nnc(CCNC3CCNCC3)o2)N1OS(=O)(=O)O` [Compound 770, (2S,5R)-7-oxo-2-(5-(2-(piperidin-4-ylamino)ethyl)-1,3,4-oxadiazol-2-yl)-1,6-diazabicyclo[3.2.1]octan-6-yl hydrogen sulfate], for which the “activity against bacterial strains that express the class D cephalosporinase OXA-15, compared with Avibactam” value in assay [1] is given as “more active than Avibactam”. In addition, the “activity and/or spectrum of activity against bacterial strains that express KPC β-lactamases, compared with Avibactam” value in assay [2] is “more active than Avibactam”.
